From ChEMBL document CHEMBL5126608, “Development, Optimization, and In Vivo Validation of New Imidazopyridine Chemotypes as Dual TLR7/TLR9 Antagonists through Activity-Directed Sequential Incorporation of Relevant Structural Subunits” (J Med Chem, 2022)
In brackets after ≈: the same amount, converted by molar mass.

Legend:
physchem [1] = conditions: octanol/water
Description: 1-Octanol/phosphate buffer partition coefficient, logD of the compound measured after 4.5 hrs by HPLC-UV analysis

Toll-like receptor 9 [2] = molecular target: T1, Toll-like receptor 9 (Homo sapiens, UniProt Q9NR96); assay: Antagonist activity at human TLR9 expressed in HEK-blue hTLR9 cells assessed as inhibition of CpGB-induced NFkappaB activation preincubated with compound for 1 hrs followed by CpGB addition and measured next day by SEAP-based spectrophotometry assay; type: cell-based
T1 sequence (Q9NR96 whole entry): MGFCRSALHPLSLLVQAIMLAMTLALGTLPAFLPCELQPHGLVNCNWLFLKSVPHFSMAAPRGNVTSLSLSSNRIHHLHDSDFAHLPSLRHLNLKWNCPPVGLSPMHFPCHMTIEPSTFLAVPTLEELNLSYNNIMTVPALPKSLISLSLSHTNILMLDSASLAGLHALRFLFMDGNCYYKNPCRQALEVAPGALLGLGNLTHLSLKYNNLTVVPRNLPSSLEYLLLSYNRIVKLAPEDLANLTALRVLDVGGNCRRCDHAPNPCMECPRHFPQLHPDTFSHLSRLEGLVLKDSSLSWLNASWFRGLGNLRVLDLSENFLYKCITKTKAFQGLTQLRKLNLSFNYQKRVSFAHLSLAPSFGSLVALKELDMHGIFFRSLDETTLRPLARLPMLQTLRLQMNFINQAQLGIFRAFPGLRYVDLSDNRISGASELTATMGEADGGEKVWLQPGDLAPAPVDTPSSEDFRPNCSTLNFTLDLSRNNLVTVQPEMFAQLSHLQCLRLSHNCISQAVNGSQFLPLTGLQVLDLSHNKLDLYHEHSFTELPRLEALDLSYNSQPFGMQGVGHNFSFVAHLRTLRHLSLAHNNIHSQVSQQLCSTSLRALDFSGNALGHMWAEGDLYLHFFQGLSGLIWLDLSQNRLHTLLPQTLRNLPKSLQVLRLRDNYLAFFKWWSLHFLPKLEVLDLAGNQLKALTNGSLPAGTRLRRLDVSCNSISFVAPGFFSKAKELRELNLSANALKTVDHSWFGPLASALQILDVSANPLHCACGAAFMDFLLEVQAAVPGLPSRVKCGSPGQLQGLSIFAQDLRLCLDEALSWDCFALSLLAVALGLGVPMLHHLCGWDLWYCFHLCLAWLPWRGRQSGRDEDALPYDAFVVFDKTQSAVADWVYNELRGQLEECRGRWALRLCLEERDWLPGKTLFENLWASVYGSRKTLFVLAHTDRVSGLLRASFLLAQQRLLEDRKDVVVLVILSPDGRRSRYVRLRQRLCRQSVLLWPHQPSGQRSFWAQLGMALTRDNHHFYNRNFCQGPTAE

Toll-like receptor 7 = molecular target: T2, Toll-like receptor 7 (Homo sapiens, UniProt Q9NYK1)
T2 sequence (Q9NYK1 whole entry): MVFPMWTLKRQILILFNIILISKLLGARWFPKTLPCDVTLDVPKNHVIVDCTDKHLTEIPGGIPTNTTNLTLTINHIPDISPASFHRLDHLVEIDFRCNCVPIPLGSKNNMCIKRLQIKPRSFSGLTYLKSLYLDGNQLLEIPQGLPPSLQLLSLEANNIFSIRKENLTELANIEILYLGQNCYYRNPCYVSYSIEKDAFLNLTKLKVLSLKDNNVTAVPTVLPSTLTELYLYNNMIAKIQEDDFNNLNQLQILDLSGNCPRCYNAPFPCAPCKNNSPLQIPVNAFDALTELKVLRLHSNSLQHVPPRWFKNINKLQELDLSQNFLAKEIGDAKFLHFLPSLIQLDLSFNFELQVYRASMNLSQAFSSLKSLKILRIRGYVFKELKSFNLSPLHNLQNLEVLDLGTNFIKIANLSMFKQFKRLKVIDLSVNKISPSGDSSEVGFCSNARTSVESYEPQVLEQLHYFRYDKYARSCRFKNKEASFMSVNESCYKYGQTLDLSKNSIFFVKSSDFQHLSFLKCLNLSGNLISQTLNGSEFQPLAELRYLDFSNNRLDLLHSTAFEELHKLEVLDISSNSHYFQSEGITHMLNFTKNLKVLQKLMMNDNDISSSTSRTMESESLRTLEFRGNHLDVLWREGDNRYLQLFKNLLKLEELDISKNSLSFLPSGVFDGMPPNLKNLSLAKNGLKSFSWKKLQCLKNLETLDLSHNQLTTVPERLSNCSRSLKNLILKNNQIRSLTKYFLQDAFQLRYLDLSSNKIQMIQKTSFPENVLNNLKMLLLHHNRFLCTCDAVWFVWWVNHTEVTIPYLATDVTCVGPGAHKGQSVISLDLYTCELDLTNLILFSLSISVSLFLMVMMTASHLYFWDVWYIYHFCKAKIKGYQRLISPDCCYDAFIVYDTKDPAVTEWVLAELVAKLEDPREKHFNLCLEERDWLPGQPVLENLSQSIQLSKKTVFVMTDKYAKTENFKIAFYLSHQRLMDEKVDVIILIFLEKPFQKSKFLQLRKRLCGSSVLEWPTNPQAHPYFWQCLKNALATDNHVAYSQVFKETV

in vitro [3] = conditions: mouse, microsomes
Description: Metabolic stability in mouse liver microsomes assessed as half life at 5 uM measured for 60 mins by LC-MS/MS analysis

[4] = Stability in mouse plasma assessed as parent compound remaining at 1 uM measured after 2 hrs by LC-MS/MS analysis
in vitro [5] = conditions: human, microsomes
Description: Metabolic stability in human liver microsomes assessed as half life at 5 uM measured for 60 mins by LC-MS/MS analysis

physchem [6] = conditions: buffer, pH 7.4
[7] = Stability in human plasma assessed as parent compound remaining at 1 uM measured after 2 hrs by LC-MS/MS analysis
Toll-like receptor 9 [8] = molecular target: T1, Toll-like receptor 9
[9] = Efflux ratio of apparent permeability across basolateral to apical side to apical to basolateral side in human Caco-2 cells measured after 120 mins by LC-MS/MS analysis
[10] = Apparent permeability across apical to basolateral side in human Caco-2 cells measured after 120 mins by LC-MS/MS analysis
[11] = Apparent permeability across basolateral to apical side in human Caco-2 cells measured after 120 mins by LC-MS/MS analysis

| Structure (SMILES) | IC50 (Toll-like receptor 9 [2]) | IC50 (Toll-like receptor 7) | other results |
| --- | --- | --- | --- |
| COc1ccc(-c2cn3ccc(N4CCN(C5CCCC5)CC4)cc3n2)c(OC)c1 | 49 nM | 2340 nM | logD at 4.5 h (physchem [1]): 2.13; half-life at 1 h, 5 µM (in vitro [3]): 31.8 min; remaining at 2 h, 1 µM [4]: 93.4%; half-life at 1 h, 5 µM (in vitro [5]): 37.6 min; solubility kinetic at 24 h, 500 µM (physchem [6]): 10.2 µg/mL (≈ 25.1 µM); remaining at 2 h, 1 µM [7]: 64.9% |
| COc1ccc(-c2cn3ccc(N4CCNCC4)cc3n2)cc1 | 803 nM | 559 nM |  |
| COc1ccc(-c2cn3ccc(NCCCN4CCOCC4)cc3n2)c(OC)c1 | 69 nM |  |  |
| COc1ccc(-c2cn3ccc(N4CCN(C5CCCC5)CC4)cc3n2)c(O)c1 | 790 nM | 20800 nM |  |
| COc1ccc(-c2nc3ccccn3c2N)c(OC)c1 |  | > 30000 nM |  |
| COc1ccc(-c2cn3ccc(N(C)C)cc3n2)c(OC)c1 | 766 nM | 3780 nM |  |
| COc1ccc(-c2cn3ccc(N4CCN(C(=O)C5CCCC5)CC4)cc3n2)c(O)c1 | 2120 nM |  |  |
| COc1ccc(-c2cn3ccc(N4CCN(C(=O)C5CCCC5)CC4)cc3n2)c(OCc2ccccc2)c1 | 5130 nM |  |  |
| COc1ccc(-c2nc3cc(N4CCN(C5CCCC5)CC4)ccn3c2CN2CCCC2)c(OC)c1 | 39 nM |  |  |
| COc1ccc(-c2cn3ccc(N4CCN(C(C)C)CC4)cc3n2)cc1 | 44 nM | 1230 nM | logD at 4.5 h (physchem [1]): 1.64; half-life at 1 h, 5 µM (in vitro [3]): 29.4 min; remaining at 2 h, 1 µM [4]: 92.8%; half-life at 1 h, 5 µM (in vitro [5]): 66 min; solubility kinetic at 24 h, 500 µM (physchem [6]): 46.1 µg/mL (≈ 131 µM); remaining at 2 h, 1 µM [7]: 60.4% |
| COc1ccc(-c2cn3ccc(N4CCN(C(C)C)CC4)cc3n2)c(OC)c1 | 40 nM |  | IC50 (Toll-like receptor 9 [8]): 28 nM |
| COc1ccc(-c2cn3ccc(NCCCn4ccnc4)cc3n2)c(OC)c1 | 38 nM | 819 nM |  |
| COc1ccc(-c2nc3cc(N4CCN(C(C)C)CC4)ccn3c2CN2CCOCC2)c(OC)c1 | 40 nM | 2490 nM |  |
| COc1ccc(-c2cn3ccc(N4CCN(C(=O)OC(C)(C)C)CC4)cc3n2)c(OCCCN2CCOCC2)c1 | 314 nM | 2950 nM |  |
| COc1ccc(-c2nc3cc(N4CCN(C5CCCC5)CC4)ccn3c2CN2CCCC2)c(O)c1 | 245 nM | 24900 nM |  |
| COc1ccc(-c2cn3ccc(N4CCN(C5CCCC5)CC4)cc3n2)c(OCc2ccccc2)c1 | 153 nM | 5560 nM |  |
| COc1ccc(-c2cn3ccc(N4CCN(C(=O)OC(C)(C)C)CC4)cc3n2)c(OCCCN2CCCC2)c1 | 157 nM |  |  |
| COc1ccc(-c2cn3ccc(N)cc3n2)cc1 | 2920 nM |  |  |
| CC(C)[N+](C)(CCOC(=O)C1c2ccccc2Oc2ccccc21)C(C)C [PROPANTHELINE] |  |  | remaining at 2 h, 1 µM [4]: 0%; remaining at 2 h, 1 µM [7]: 0% |
| COc1ccc(-c2nc3cc(N4CCN(C5CCCC5)CC4)ccn3c2NCc2ccccc2)c(OC)c1 | 526 nM | 4810 nM |  |
| COc1ccc(-c2cn3ccc(NCCN4CCOCC4)cc3n2)c(OC)c1 | 49 nM | 3390 nM |  |
| COc1ccc(-c2cn3ccc(N4CCN(C(=O)c5ccccc5)CC4)cc3n2)c(OCc2ccccc2)c1 | 1060 nM | 24900 nM |  |

| Structure (SMILES) | IC50 (Toll-like receptor 9 [2]) | IC50 (Toll-like receptor 7) | other results |
| --- | --- | --- | --- |
| COc1ccc(-c2cn3ccc(N4CCN(C(=O)c5ccc(F)cc5)CC4)cc3n2)c(OCc2ccccc2)c1 | 2190 nM | 11000 nM |  |
| COc1ccc(-c2cn3ccc(NCCCN4CCOCC4)cc3n2)cc1 | 67 nM | 1060 nM |  |
| COc1ccc(-c2cn3ccccc3n2)c(OC)c1 | 10400 nM |  |  |
| COc1ccc(-c2cn3ccc(N4CCNCC4)cc3n2)c(OC)c1 | 46 nM |  |  |
| COc1ccc(-c2cn3ccc(N4CCNCC4)cc3n2)c(OCCCN2CCOCC2)c1 | 35 nM | 1350 nM |  |
| COc1ccc(-c2nc3cc(N4CCN(C5CCCC5)CC4)ccn3c2CN2CCOCC2)c(OC)c1 | 142 nM | 2120 nM |  |
| CC(C)NCC(O)COc1cccc2ccccc12 (stereo not drawn) [PROPRANOLOL] |  |  | efflux ratio at 2 h [9]: 1.2; Papp A→B at 2 h [10]: 14.4 ×10⁻⁶ cm/s; Papp B→A at 2 h [11]: 17.3 ×10⁻⁶ cm/s |
| COc1ccc(-c2cn3ccc(N4CCN(C(=O)C5CCCC5)CC4)cc3n2)c(OC)c1 | 2910 nM | 8700 nM |  |
| COc1ccc(-c2cn3ccc(N)cc3n2)c(OC)c1 | 1570 nM |  |  |
| COc1ccc(-c2nc3cc(N4CCN(C5CCCC5)CC4)ccn3c2CN2CCCC2)c(OCc2ccccc2)c1 | 240 nM |  |  |
| CN(C)c1ccn2cc(-c3ccccc3)nc2c1 | 2190 nM |  |  |
| CCCSc1ccc2nc(NC(=O)OC)[nH]c2c1 [ALBENDAZOLE] |  |  | solubility kinetic at 24 h, 500 µM (physchem [6]): 2.2 µg/mL (≈ 8.29 µM) |
| COc1ccc(-c2cn3ccc(N(C)C)cc3n2)cc1 | 1480 nM |  |  |
| COc1ccc(-c2cn3ccc(N4CCNCC4)cc3n2)c(OCCCN2CCCC2)c1 | 94 nM |  |  |
| COc1ccc(-c2cn3ccc(N4CCN(C5CCCC5)CC4)cc3n2)c(OCCCN2CCOCC2)c1 | 28 nM | 478 nM | efflux ratio at 2 h [9]: 0.5; remaining at 2 h, 1 µM [4]: 90.6%; Papp A→B at 2 h [10]: 15.4 ×10⁻⁶ cm/s; Papp B→A at 2 h [11]: 8.17 ×10⁻⁶ cm/s; solubility kinetic at 24 h, 500 µM (physchem [6]): 2.6 µg/mL (≈ 5 µM); remaining at 2 h, 1 µM [7]: 94.3% |
| COc1ccc(-c2cn3ccc(N4CCN(C5CCCC5)CC4)cc3n2)cc1 | 71 nM | 3330 nM |  |
| COc1ccc(-c2cn3ccc(N4CCN(C5CCCC5)CC4)cc3n2)c(OCCCN2CCCC2)c1 | 17 nM |  |  |
| COc1ccc(-c2nc3cc(N4CCN(C(C)C)CC4)ccn3c2CN2CCCC2)c(OC)c1 | 15 nM |  |  |
| COc1ccc(-c2cn3ccc(N4CCNCC4)cc3n2)c(OCc2ccccc2)c1 | 55 nM | 1130 nM |  |
| COc1ccc(-c2nc3cc(N4CCN(C5CCCC5)CC4)ccn3c2NC2CCCCC2)c(OC)c1 | 2110 nM | 6700 nM |  |
| COc1ccc(-c2nc3cc(N4CCN(C(=O)C5CCCC5)CC4)ccn3c2CN2CCCC2)c(OC)c1 | 1120 nM | 2550 nM |  |
